According to patent US6939707B2, “Isolated nucleic acid molecules which encode GAGE genes and uses thereof” (Ludwig Institute for Cancer Research, priority 1993, dated 2005):
Ends that are not written are not given here.

Assays:
Type in all cases: cell-based, human
CTL 76/6 = test: TNF release by CTL 76/6 on peptide-pulsed COS-7 cells transfected with HLA-Cw6 cDNA; conditions: peptide 20 ug/ml, 90 minutes at 37° C., 3000 CTLs, TNF in supernatant after eighteen hours tested on WEHI-164-13 cells
Method: Each peptide was pulsed into COS-7 cells previously transfected with HLA-Cw6 cDNA, and combined with CTL 76/6 to determine if TNF release would be induced. Peptides (20 ug/ml) were added to COS-7 cells which had been transfected with the HLA-Cw6 cDNA twenty-four hours previously After incubation at 37° C. for 90 minutes, medium was discarded, and 3000 CTLs were added in 100 microliters of medium, containing 25 units/ml of IL-2. Eighteen hours later, TNF content of supernatant was tested via determining toxicity on WEHI-164-13 cells. […] The second peptide was used for further experiments.

HLA-A29 = test: 51Cr release lytic assay with GAGE-3 to 6 derived peptides (HLA-A29); conditions: FIG. 8; successive deletions of SEQ ID NO: 21
Method: The lysis assay employed was a chromium release assay following Herin et at., Int. […] The target melanoma cells were grown in vitro, and then resuspended at 10^7 cells/ml in DMEM, supplemented with 10 mM Hepes and 30% FCS, and incubated for 45 minutes at 37° C. with 200 μCi/ml of Na(^51Cr)O4. Labeled cells were washed three times with DMEM supplemented with 10 mM Hepes. These were then resuspended in DMEM supplemented with 10 mM Hepes and 10% FCS, after which 100 ul aliquots containing 10^3 cells, were distributed into 96 well microplates. Samples of PBLs were added in 100 ul of the same medium, and assays were earned out in duplicate. Plates were centrifuged for 4 minutes at 100 g, and incubated for four hours at 37° C. in an 8% CO2 atmosphere.
The peptide (SEQ ID NO: 21) was tested in a ^51Cr release experiment, following the method described supra.
Successive deletions were prepared, and tested for their ability to provoke lysis, again using the ^51Cr lytic assay.

LB33-EBV cells = test: 51Cr release lysis of peptide-incubated LB33-EBV cells (HLA-Cw6 positive) by CTL 76/6; conditions: CTL 76/6, effector:target ratio 10:1, four hours at 37° C., varying peptide concentration (FIG. 3)
Method: The lysis assay employed was a chromium release assay following Herin et at., Int. J. Cancer 39;390-396 (1987), the disclosure of which is incorporated by reference. The assay, however, is described herein. The target melanoma cells were grown in vitro, and then resuspended at 10^7 cells/ml in DMEM, supplemented with 10 mM Hepes and 30% FCS, and incubated for 45 minutes at 37° C. with 200 μCi/ml of Na(^51Cr)O4. Labeled cells were washed three times with DMEM supplemented with 10 mM Hepes. These were then resuspended in DMEM supplemented with 10 mM Hepes and 10% FCS, after which 100 ul aliquots containing 10^3 cells, were distributed into 96 well microplates. Samples of PBLs were added in 100 ul of the same medium, and assays were earned out in duplicate. Plates were centrifuged for 4 minutes at 100 g, and incubated for four hours at 37° C. in an 8% CO2 atmosphere.
Plates were centrifuged again, and 100 ul aliquots of supernatant were collected and counted. Percentage of ^51Cr release was calculated as follows: [formula] where ER is observed, experimental ^51Cr release, SR is spontaneous release measured by incubating 10^3 labeled cells in 200 ul of medium alone, and MR is maximum release, obtained by adding 100 ul 0.3% Triton X-100 to target cells.
Various peptides based upon SEQ ID NO: 13 were synthesized, and tested, some of which are presented below. To carry out these tests ^51Cr labelled LB33-EBV cells, which are HLA-Cw6 positive, were incubated with one of the following peptides:
Levels of lysis for positive (“F^+”, MZ2-MEL.3.1), and negative (“F”; MZ2-MEL.2.2.5) control cells are indicated, in FIG. 3.

HLA-Cw6 positive cells = test: Lysis of peptide-pulsed HLA-Cw6 positive cells by CTL 82/31; conditions: HLA-Cw6 positive cells pulsed with peptide; results not reported in detail
Method: In results not reported here, a second CTL was tested (CTL 82/31).

MSWRGRSTYRPRPRR [SEQ ID NO: 12]
TNF induced (CTL 76/6): less than 10 pg/ml

Tyr Tyr Trp Pro Arg Pro Arg Arg Tyr [SEQ ID NO: 22]
ability to provoke lysis (51Cr release) (HLA-A29): shortest peptide to provoke lysis

TYRPRPRRYVEPPEMI [SEQ ID NO: 13]
TNF induced (CTL 76/6): more than 30 pg/ml

TYRPRPRRY [SEQ ID NO: 5]
CTL lysis (51Cr release) (LB33-EBV cells): induced CTL lysis albeit to a lesser extent

YRPRPRRY [SEQ ID NO: 4, octamer tumor rejection antigen presented by HLA-Cw6]
CTL lysis (51Cr release) (LB33-EBV cells): the best peptide
lysis by second CTL (CTL 82/31) (HLA-Cw6 positive cells): lysed HLA-Cw6 positive cells

TRPRPRRYV [SEQ ID NO: 6]
CTL lysis (51Cr release) (LB33-EBV cells): induced CTL lysis albeit to a lesser extent

RSTYYWPRPRRYVQ [SEQ ID NO: 21]
ability to provoke lysis (51Cr release) (HLA-A29): did provoke lysis
